Experimental findings from patent US20260152533A1, “COMBINATION INHIBITORS FOR TREATING FIBROSIS” (Memorial Sloan-Kettering Cancer Center, priority 2021, published 2026) are described below.

Assay type in all cases: cell-based, mouse
Assay [1] has as its system NIH-3T3 cells. Put plainly: Growth experiments, NIH-3T3 cells. The note with it: 10% Gln, TGFβ, 0.2, 1 or 5 mM metabolite, 3 days. From the text: (§1) NIH-3T3 cells were obtained from ATCC (CRL-1658); 293 T cells were obtained from ATCC (CRL-3216). PSCs were isolated from C57BL/6 mice by differential centrifugation as previously described^49 and their mesenchymal origin was validated by analyzing the expression of various mesenchymal and epithelial markers. MFBs were isolated from FVB/N mice by differential centrifugation as previously described^50. DB7 mouse breast cancer cells were obtained from Alexander Borowsky (University of California Davis Comprehensive Cancer Center, Sacramento, CA, USA) through an MTA to Ohio State University (OSU). KPC (Kras^LSL-G12D; Trp53^LSL-R172H; Pdx1-Cre) mouse PDAC cells were a gift from Scott Lowe (Memorial Sloan Kettering Cancer Center. (MSKCC)). All cells were cultured at 37° C. in 5% carbon dioxide (CO2) and 20% oxygen (O2) and were maintained in Dulbecco's Modified Eagles medium (DMEM) (25 mM D-glucose, 2 mM L-glutamine) supplemented with 10% fetal bovine serum (FBS) (Gemini), 100 units/ml penicillin and 100 μg/ml streptomycin. Primary PSC and MFB cells were kept in culture for no more than ten passages. Experiments with iCAFs and myCAFs were performed as previously described^29. In brief, qPSCs were generated by culturing PSCs in a dome of GFR Matrigel (Corning) in DMEM; iCAFs were generated by culturing PSCs in a dome of GFR Matrigel in DMEM conditioned by KPC cells for 48 h; myCAFs were generated by monolayer culture of PSCs. Differentiation was validated by analyzing the expression of iCAF/myCAF markers^29. For experiments with different glutamine concentrations, cells were seeded in regular DMEM and the medium was changed 5-6 hours later or the following day to glucose and glutamine-free DMEM supplemented with 10% dialyzed FBS (Gemini) and 20 mM D-glucose, 2 mM L-glutamine (100%), 0.4 mM L-glutamine (20%) or 0.2 mM L-glutamine (10%). All media were prepared by the Media Preparation Facility at MSKCC. Cells were verified as mycoplasma-free by the MycoAlert Mycoplasma Detection Kit (Lonza).
A total of 0.2×10^5 cells/well were plated in 24-well culture plates and media was changed and treatments started 5-6 hours later. Cell numbers at the start of treatment (day 0 “d 0”) and 1, 2 and 3 days later were counted using the Multisizer 4e (Beckman) and normalized to the cell number at d 0. In co-culture assays, a fraction of the cell population was analyzed by flow cytometry for GFP expression, and the rest counted with the Multisizer 4e. The number of KPC-GFP cells was determined by multiplying the fraction of GFP+ cells with the total number of cells.

For assay [2], the system named is NIH-3T3 cells. Put plainly: Western blot of NIH-3T3 cells (collagen I, GCN2, ATF4, PC). The following applies: for rescue of TGFβ-induced collagen I depletion: metabolite, 48 hours.
Text: as §1, with “PSCs” for “NIH-3T3 cells were obtained from ATCC (CRL-1658); 293 T cells were obtained from ATCC (CRL-3216). PSCs”
Lysates were generated by incubating cells or ground tumors in RIPA buffer (Millipore); […] of cleared lysate were analyzed by SDS-polyacrylamide gel electrophoresis (SDS-PAGE) as previously described^11. […] The following secondary antibodies were used: anti-rabbit horseradish peroxidase (HRP) (1:5,000; GE, NA934V), anti-mouse HRP (1:5,000; GE, NA931). Quantification of band intensities of collagen I relative to […] or vinculin in tumor allograft experiments was performed with Image Lab software v6.0 (Bio-Rad).
A general note: In western blotting, separated proteins are transferred to a membrane and probed.

Assay [3] concerns NIH-3T3 cells. The assay can be described thus: tRNA charging assay, NIH-3T3 cells. The following applies: 10% Gln, TGFβ 2 ng/mL, dm-αKG 5 mM with or without MSO 2 mM, 48 hours (FIG. 2A). As for the experimental part: Charging status of the indicated tRNA isodecoders was measured as previously described^20. In brief, Trizol-chloroform extracts were precipitated with 2.7× volumes of cold ethanol in the presence of 30 μg GlycoBlue (ThermoFisher) overnight. Samples were resuspended in 0.3 M acetate buffer (pH 4.5) with 10 mM ethylenediamine tetraacetic acid (EDTA) and precipitated overnight. Samples were resuspended in 10 mM acetate buffer with 1 mM EDTA. 2 μg of each RNA sample was treated with 10 mM of either sodium periodate (Sigma) (‘oxidized sample’) or sodium chloride (‘non-oxidized sample’) and incubated for 20 minutes at room temperature in the dark. Reactions were quenched with glucose for 15 minutes. Yeast Phe-tRNA (Sigma) was spiked into each sample, followed by ethanol precipitation. Samples were resuspended in 50 mM Tris buffer (pH 9) and incubated for 50 minutes at 37° C., quenched with acetate buffer and precipitated. […] Reverse transcription was performed with SuperScript IV reverse transcriptase (Thermo Scientific) according to the manufacturer's instructions, with a primer complementary to the DNA adaptor. cDNA samples were subjected to qPCR with tRNA isodecoder-specific primer pairs listed in Supplementary Table 1. Ct values obtained with primers specific for yeast Phe-tRNA were subtracted from Ct values obtained with isodecoder-specific primers. The charged fraction was calculated based on the relative difference between the delta-Ct value of a non-oxidized (representing total) and oxidized (representing charged) sample for each primer pair.

Assay [4] has as its system pancreatic stellate cells (PSCs). The assay can be described thus: Western blot of PSCs. The following applies: TGFβ-treated PSCs, low glutamine, MSO (FIGS. 9A-9B).
Text: as §1, with “PSCs” for “NIH-3T3 cells were obtained from ATCC (CRL-1658); 293 T cells were obtained from ATCC (CRL-3216). PSCs”, “For experiments with different glutamine concentrations, cells were seeded in regular DMEM and the medium was changed 5-6 hours later or the following day to glucose and glutamine-free DMEM supplemented with 10% dialyzed FBS (Gemini) and 20 mM D-glucose, 2 mM L-glutamine (100%), 0.4 mM L-glutamine (20%) or 0.2 mM L-glutamine (10%). All media were prepared by the Media Preparation Facility at MSKCC. Cells were verified as mycoplasma-free by the MycoAlert Mycoplasma Detection Kit (Lonza).” left out
Lysates were generated by incubating cells or ground tumors in RIPA buffer (Millipore); […] of cleared lysate were analyzed by SDS-polyacrylamide gel electrophoresis (SDS-PAGE) as previously described^11. […] Quantification of band intensities of collagen I relative to […] or vinculin in tumor allograft experiments was performed with Image Lab software v6.0 (Bio-Rad).

Assay [5] concerns NIH-3T3 cells. The assay can be described thus: Translation assay (OPP), NIH-3T3 cells. The note with it: cells expressing human PC cDNA, 10% Gln, TGFβ, MSO 48 hours (FIG. 3K). How it is done:
Cells were treated as indicated and incubated with 20 μM O-propargyl-puromycin (OPP, Thermo Scientific) for the last 1 hour of the experiment. Cells were harvested by trypsinization and fixed with methanol at −20° C., followed by permeabilization with 0.5% Triton X-100 in phosphate-buffered saline (PBS).

Assay [6] has as its system NIH-3T3 cells. Put plainly: Collagen abundance in ECM derived from confluent NIH-3T3 cells. The following applies: low glutamine and low glucose medium (FIGS. 12E and 12F). As for the experimental part: Culture plates were coated with 0.1% gelatin (Sigma) and treated with 1% glutaraldehyde (Sigma) and 1 M ethanolamine (Sigma). Confluent NIH-3T3 cells, MFBs or PSCs were grown for 6 days on coated plates in the presence of […] sodium ascorbate (Sigma) and treated as indicated, and the medium was replaced every other day. Plates were decellularized with 20 mM ammonium hydroxide/0.5% Triton-X 100 for 5 min on a rotating platform. Three times the volume of PBS was added, and ECM was equilibrated overnight at 4° C., followed by four additional PBS washes. For western blot, preheated sample buffer supplemented with 1 mM dithiothreitol (DTT) was added, ECM was scraped off and boiled, and proteins were separated by SDS-PAGE followed by immunoblotting. To measure collagen abundance, fibroblast-derived ECM was stained with the Picro Sirius Red Stain Kit (Abcam) according to the manufacturer's instructions. The stain was extracted with 0.1 M sodium hydroxide (NaOH) and optical density was measured at 550 nm using a microplate reader. Differences in cell number were controlled for by growing cells on separate plates under the same experimental conditions.

Setting [7] is: concentrations relevant in vivo (10 mM lactate, 0.1 mM pyruvate), low glutamine and low glucose (FIG. 6E).

As for `NC(=O)C[C@H](N)C(=O)O` [Asparagine, asparagine], the “rescue of TGFβ-induced growth defect” value with NIH-3T3 cells [1] is “did not rescue”. For the same compound, the “rescue of TGFβ-induced collagen I depletion” value with NIH-3T3 cells [2] (10% Gln) was “did not rescue”.
Take `CS(=N)(=O)CC[C@H](N)C(=O)O` (stereo partly drawn) [MSO, methionine sulfoximine]: the “charging of glutamine-tRNA” value with NIH-3T3 cells [3] is “blocked”. Further, the “restoration of collagen levels by dm-Glu and dm-αKG” value was “prevented” in assay [4] and “prevented” in the assay with NIH-3T3 cells [2] (TGFβ-treated NIH-3T3 cells, low glutamine, MSO (FIGS. 2C-2E)). For the same compound, in the assay on NIH-3T3 cells [2] (PC-deleted cells, 10% Gln, dm-αKG plus MSO, 48 hours (FIG. 4I)), the “restoration of collagen I levels by dm-αKG” value is given as “unable to restore”. Also, in the assay on NIH-3T3 cells [2] (low Gln (10%), no TGFβ, MSO 48 hours (FIG. 2J)), the “collagen I synthesis” value is “unable to maintain”. Moreover, the “increase of protein translation by PC overexpression” value in the assay on NIH-3T3 cells [5] is reported as “blocked”.
As for `CC(=O)C(=O)[O-].[Na+]` [Pyruvate, sodium pyruvate], the “collagen 1 levels” value in the assay with NIH-3T3 cells [2] (setting [7]) is on record as “only lactate supplementation increased”. Further, the “potency to increase collagen 1 levels, relative” value in the assay on NIH-3T3 cells [2] (low glutamine and low glucose (FIG. 6E)) is listed as “more potent than lactate”.
Take `CC(O)C(=O)[O-].[Na+]` (stereo not drawn) [lactate, sodium lactate]: the “ability of extracellular lactate to rescue collagen I” value with NIH-3T3 cells [2] (Ctrl or PC sgRNA cells, low glutamine and low glucose (FIG. 6H)) is “PC-dependent”. For the same compound, the “collagen 1 levels” value was “increased” with NIH-3T3 cells [2] (setting [7]); “increased” in the assay with NIH-3T3 cells [2] (low glutamine (10%) and low glucose (1 mM), 48 hours (FIG. 6E)). In addition, the “collagen levels in the ECM produced by confluent fibroblasts” value in the assay on NIH-3T3 cells [6] is recorded as “increased”.
Regarding `COC(=O)[C@@H]1CCCN1` [m-Pro, L-proline-methylester, reference compound], in the assay with NIH-3T3 cells [1], the “rescue of TGFβ-induced growth defect” value is “not”. Besides, the “rescue of TGFβ-induced collagen I depletion” value in the assay with NIH-3T3 cells [2] (10% Gln) is listed as “not”.
Regarding `O=C(O)[C@@H]1CCCN1` [proline], in the assay on NIH-3T3 cells [1], the “rescue of TGFβ-induced growth defect” value was “did not rescue”. Also, in the assay on NIH-3T3 cells [2] (10% Gln), the “rescue of TGFβ-induced collagen I depletion” value is “did not rescue”.
